Consider 23 molecules from US11559538B2, “Substituted 1,2-oxaborolan-2-ols as PDE4 inhibitors” (Pfizer Inc., priority 2018, dated 2023).

pIC50: −log10 of the molar value. Read-outs that look alike come from different tables or passages of the source.

In one assay the test system is IL-13. Kind of assay: Cytokine assay: IL-13 release from PHA-L stimulated human PBMCs. To be noted: read-out: IL13 IC50. Type of assay: cell-based. The method in brief:
(§1)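 Cytokines IL-4, IL-13 and IFNγ quantified by HTRF after 48 h, 37 °C culture of human PBMCs activated with PHA-L at 3.5 μg/mL final. Test compound, 4-fold dilutions from approximately 10 μM in 0.25% DMSO, was added briefly before stimulation; IC50 derived by four-parameter logistic regression.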

In another assay the test system is IL-4. The experiment in a line: Cytokine assay: IL-4 release from PHA-L stimulated human PBMCs. Format: cell-based. Particulars: read-out: IL4 IC50. In outline:
as §1

A further assay deals with IFNγ. Kind of assay: Cytokine assay: IFNγ release from PHA-L stimulated human PBMCs. Format: cell-based. In outline:
as §1

Assay [1] concerns the target PDE4B (aa 152-484, Uniprot ID Q07343) (Homo sapiens (Human), UniProt Q07343). The experiment in a line: PDE4 SPA assay (scintillation proximity assay). To be noted: read-out: PDE4B2 IC50. Format: biochemical. The method in brief:
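Scintillation proximity read-out after a 30 min room-temperature reaction of ~81.6 pM PDE4B catalytic fragment (aa 152-484) with 1 μM tritiated/unlabeled cAMP, pH 7.5 Tris buffer with MgCl2 and Brij 35. Compound given ~10 min beforehand, 4-fold dilutions, ~2% DMSO; IC50 from four-parameter logistic curve.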
In general terms: SPA uses beads or plates that emit light when radiolabelled molecules are held near them.

Sequence of PDE4B (aa 152-484, Uniprot ID Q07343) (Q07343 324-656): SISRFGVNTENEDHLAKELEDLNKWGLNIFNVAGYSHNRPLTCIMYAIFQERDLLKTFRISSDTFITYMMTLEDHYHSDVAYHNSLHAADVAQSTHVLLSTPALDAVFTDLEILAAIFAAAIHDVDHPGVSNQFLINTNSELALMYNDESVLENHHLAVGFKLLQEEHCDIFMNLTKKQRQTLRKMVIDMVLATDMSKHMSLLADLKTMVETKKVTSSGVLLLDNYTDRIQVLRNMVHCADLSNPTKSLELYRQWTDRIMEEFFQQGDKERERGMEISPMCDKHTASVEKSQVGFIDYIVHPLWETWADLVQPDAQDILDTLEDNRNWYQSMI

What is called pIC50 is the IC50 on a negative log10 scale, so that one unit is a factor of ten. Turning to `CCCOc1cc(-c2ccc(F)c(C3COB(O)C3)n2)ccc1OC` (single isomer, unassigned; enantiomer 1) [Example 230, 4-(3-fluoro-6-(4-methoxy-3-propoxyphenyl)pyridin-2-yl)-1,2-oxaborolan-2-ol, enantiomer 1], the negative-log IC50 (pIC50) in the assay with IL-13 (Homo sapiens, PBMC) was 5.56; in the assay on IL-4 (Homo sapiens, PBMC), 6.85; in the assay with IFNγ (Homo sapiens, PBMC), 7.58; in assay [1], 7.77.
For `CCCOc1nc(-c2cc(C3COB(O)C3)cnc2C)ccc1OC` (single isomer, unassigned; enantiomer 1) [Example 231, (−) 4-(5-methoxy-2′-methyl-6-propoxy-[2,3′-bipyridin]-5′-yl)-1,2-oxaborolan-2-ol, enantiomer 1], the negative-log IC50 (pIC50) is 5.53 in the assay on IL-13 (Homo sapiens, PBMC); 8.90 in the assay on IL-4 (Homo sapiens, PBMC); 8.76 in the assay on IFNγ (Homo sapiens, PBMC); 8.70 in assay [1].
For the molecule `CCCOc1cc(-c2nc(CO)cc(C3COB(O)C3)n2)c(F)cc1OC` (single isomer, unassigned; enantiomer 2) [Example 154, (−) 4-(2-(2-fluoro-4-methoxy-5-propoxyphenyl)-6-(hydroxymethyl)pyrimidin-4-yl)-1,2-oxaborolan-2-ol, enantiomer 2], the negative logarithm of the IC50 (pIC50) in the assay with IL-13 (Homo sapiens, PBMC) is 6.05; in the assay on IL-4 (Homo sapiens, PBMC), 7.50; in the assay with IFNγ (Homo sapiens, PBMC), 7.82; in assay [1], 7.85.
`CCOc1cc(-c2cncc(C3COB(O)C3)c2)cc(Cl)c1OC` (single isomer, unassigned; enantiomer 2) [Example 173, 4-(5-(3-chloro-5-ethoxy-4-methoxyphenyl)pyridin-3-yl)-1,2-oxaborolan-2-ol, enantiomer 2]: the pIC50 in the assay with IL-13 was 5.95; in the assay with IL-4, 7.11; in the assay with IFNγ it was 7.52; in assay [1], 8.00.
Consider `COc1cc(-c2ccc(OC)c(OC3CCCC3)c2)nc(C2COB(O)C2)n1` (single isomer, unassigned; enantiomer 2) [Example 176, 4-(4-(3-(cyclopentyloxy)-4-methoxyphenyl)-6-methoxypyrimidin-2-yl)-1,2-oxaborolan-2-ol, enantiomer 2], for which the pIC50 with IL-13 (Homo sapiens, PBMC) is 5.94; with IL-4 (Homo sapiens, PBMC), 8.19; in the assay on IFNγ (Homo sapiens, PBMC), 8.53; in assay [1], 8.26.
In the case of `COc1ccc(-c2nc(C3COB(O)C3)ns2)cc1OC1CC1` (single isomer, unassigned; enantiomer 2) [Example 181, (−) 4-(5-(3-cyclopropoxy-4-methoxyphenyl)-1,2,4-thiadiazol-3-yl)-1,2-oxaborolan-2-ol, enantiomer 2], the negative logarithm of the IC50 (pIC50) with IL-13 (Homo sapiens, PBMC) is 5.89; with IL-4 (Homo sapiens, PBMC) it was 8.65; in the assay on IFNγ (Homo sapiens, PBMC) it was 8.50; in assay [1], 9.17.
For `CCOc1cc(-c2nc(OC)cc(C3COB(O)C3)n2)ccc1OC` (single isomer, unassigned; enantiomer 2) [Example 186, (−) 4-(2-(3-ethoxy-4-methoxyphenyl)-6-methoxypyrimidin-4-yl)-1,2-oxaborolan-2-ol, enantiomer 2], the pIC50 was 5.85 with IL-13 (Homo sapiens, PBMC); 7.50 with IL-4 (Homo sapiens, PBMC); 8.29 in the assay with IFNγ (Homo sapiens, PBMC); 8.35 in assay [1].
`CCOc1cc(-c2cncc(C3COB(O)C3)c2C)ccc1OC` (single isomer, unassigned; enantiomer 2) [Example 189, 4-(5-(3-ethoxy-4-methoxyphenyl)-4-methylpyridin-3-yl)-1,2-oxaborolan-2-ol, enantiomer 2]: the negative logarithm of the IC50 (pIC50) in the assay on IL-13 was 5.84; in the assay with IL-4, 8.11; in the assay on IFNγ (Homo sapiens, PBMC), 8.84; in assay [1], 8.58.
With `COc1ccc(-c2cncc(C3COB(O)C3)c2)cc1OC(C)C` (single isomer, unassigned; enantiomer 2) [Example 190, 4-(5-(3-isopropoxy-4-methoxyphenyl)pyridin-3-yl)-1,2-oxaborolan-2-ol, enantiomer 2], the negative logarithm of the IC50 (pIC50) is 5.83 in the assay on IL-13, 7.39 with IL-4, 8.30 with IFNγ and 8.84 in assay [1].
`CCOc1c(OC)ccc(-c2cccc(C3COB(O)C3)c2)c1C#N` (single isomer, unassigned; enantiomer 2) [Example 192, 3-ethoxy-3′-(2-hydroxy-1,2-oxaborolan-4-yl)-4-methoxy-[1,1′-biphenyl]-2-carbonitrile, enantiomer 2]: the pIC50 is 5.82 in the assay on IL-13 (Homo sapiens, PBMC); 7.83 in the assay on IL-4 (Homo sapiens, PBMC); 8.27 in the assay with IFNγ (Homo sapiens, PBMC); 8.67 in assay [1].
For the molecule `CCCOc1nc(-c2cncc(C3COB(O)C3)c2)c(F)cc1OC` (single isomer, unassigned; enantiomer 2) [Example 208, (+) 4-(3-fluoro-5-methoxy-6-propoxy-[2,3′-bipyridin]-5′-yl)-1,2-oxaborolan-2-ol, enantiomer 2], the negative-log IC50 (pIC50) with IL-13 is 5.74; in the assay on IL-4 it was 8.39; in the assay with IFNγ, 8.70; in assay [1], 9.66.
Regarding `COc1ccc(-c2cc(C3COB(O)C3)ccn2)cc1OC1CCCC1` (single isomer, unassigned; enantiomer 2) [Example 211, 4-(2-(3-(cyclopentyloxy)-4-methoxyphenyl)pyridin-4-yl)-1,2-oxaborolan-2-ol, enantiomer 2], the pIC50 in the assay with IL-13 (Homo sapiens, PBMC) is 5.74; in the assay on IL-4 (Homo sapiens, PBMC), 7.56; with IFNγ (Homo sapiens, PBMC), 8.74; in assay [1], 8.53.
Consider `CCOc1cc(-c2cncc(C3COB(O)C3)c2)cc(F)c1OC` (single isomer, unassigned; enantiomer 2) [Example 214, 4-(5-(3-ethoxy-5-fluoro-4-methoxyphenyl)pyridin-3-yl)-1,2-oxaborolan-2-ol, enantiomer 2], for which the pIC50 with IL-13 was 5.70; with IL-4, 7.68; with IFNγ, 7.86; in assay [1] it was 8.31.
Take `COc1ccc(-c2cncc(C3COB(O)C3)c2)cc1OC` (single isomer, unassigned; enantiomer 2) [Example 221, 4-(5-(3,4-dimethoxyphenyl)pyridin-3-yl)-1,2-oxaborolan-2-ol, enantiomer 2]: the pIC50 in the assay on IL-13 is 5.62; in the assay on IL-4 it was 7.32; in the assay with IFNγ it was 8.03; in assay [1], 8.66.
On to `CCCOc1cc(-c2nc(OC)cc(C3COB(O)C3)n2)ccc1OC` (single isomer, unassigned; enantiomer 2) [Example 225, (−) 4-(6-methoxy-2-(4-methoxy-3-propoxphenyl)pyrimidin-4-yl)-1,2-oxaborolan-2-ol, enantiomer 2], for which the negative logarithm of the IC50 (pIC50) was 5.62 with IL-13 (Homo sapiens, PBMC); 7.67 in the assay on IL-4 (Homo sapiens, PBMC); 8.36 in the assay on IFNγ (Homo sapiens, PBMC); 8.42 in assay [1].
Regarding `COc1ccc(-c2cncc(C3COB(O)C3)c2)cc1OCCO` (single isomer, unassigned; enantiomer 2) [Example 228, (+) 4-(5-(3-(2-hydroxyethoxy)-4-methoxyphenyl)pyridin-3-yl)-1,2-oxaborolan-2-ol, enantiomer 2], the negative-log IC50 (pIC50) was 5.59 in the assay on IL-13, 8.11 in the assay with IL-4, 7.85 in the assay on IFNγ and 8.20 in assay [1].
Turning to `CCOc1cc(-c2cncc([C@H]3COB(O)C3)c2)ccc1OC` [Example 2, (S)-4-(5-(3-ethoxy-4-methoxyphenyl)pyridin-3-yl)-1,2-oxaborolan-2-ol], the pIC50 with IL-13 (Homo sapiens, PBMC) is 5.87; with IL-4 (Homo sapiens, PBMC), 6.68; in the assay on IFNγ (Homo sapiens, PBMC), 8.56; in assay [1], 9.17.
On to `CCOc1cc(-c2cncc([C@@H]3COB(O)C3)c2)ccc1OC` [Example 3, (R)-4-(5-(3-ethoxy-4-methoxyphenyl)pyridin-3-yl)-1,2-oxaborolan-2-ol], for which the pIC50 in the assay on IL-13 (Homo sapiens, PBMC) was 6.78; in the assay with IL-4 (Homo sapiens, PBMC) it was 8.45; in the assay on IFNγ (Homo sapiens, PBMC) it was 9.15; in assay [1] it was 8.94.
`CCCOc1cc(-c2cncc([C@H]3COB(O)C3)c2)ccc1OC` [Example 5, (S)-4-(5-(4-methoxy-3-propoxyphenyl)pyridin-3-yl)-1,2-oxaborolan-2-ol]: the pIC50 is 5.62 in the assay on IL-13 (Homo sapiens, PBMC); 7.44 in the assay with IL-4 (Homo sapiens, PBMC); 8.39 in the assay on IFNγ (Homo sapiens, PBMC); 9.03 in assay [1].
With `CCCOc1cc(-c2cncc(C3=CB(O)OC3)c2)ccc1OC` [Example 25, 4-(5-(4-methoxy-3-propoxyphenyl)pyridin-3-yl)-1,2-oxaborol-2(5H)-ol], the pIC50 is 5.64 with IL-13 (Homo sapiens, PBMC); 7.17 with IL-4 (Homo sapiens, PBMC); 8.04 in the assay with IFNγ (Homo sapiens, PBMC); 8.62 in assay [1].
Turning to `CCCOc1cc(-c2cccc(C3CCOB(O)C3)n2)ccc1OC` (centres unmarked) [Example 26, 4-(6-(4-methoxy-3-propoxyphenyl)pyridin-2-yl)-1,2-oxaborinan-2-ol], the pIC50 was 5.00 in the assay on IL-13 (Homo sapiens, PBMC); 5.78 with IL-4 (Homo sapiens, PBMC); 5.48 in the assay on IFNγ (Homo sapiens, PBMC); 6.40 in assay [1].
`CCCOc1cc(-c2cccc(C3COB(O)C3C)n2)ccc1OC` (centres unmarked) [Example 27, 4-(6-(4-methoxy-3-propoxyphenyl)pyridin-2-yl)-3-methyl-1,2-oxaborolan-2-ol]: the pIC50 in the assay on IL-13 (Homo sapiens, PBMC) is 5.00; in the assay with IL-4 (Homo sapiens, PBMC) it was 5.42; in the assay with IFNγ (Homo sapiens, PBMC), 6.68; in assay [1] it was 7.13.
On the same counts, the results for `CCCOc1cc(-c2cccc(C3=C(C)B(O)OC3)n2)ccc1OC` [Example 28, 4-(6-(4-methoxy-3-propoxyphenyl)pyridin-2-yl)-3-methyl-1,2-oxaborol-2(5H)-ol] are 5.10, 5.98, 6.70 and 7.96.
